Assay [1] concerns the target T1, PKR WT (Homo sapiens, UniProt P30613). In words: PKR WT cell based AC50 assay. Conditions: wild type PKR.
Assay [2] deals with T1, PKR WT. In words: PKR WT enzymatic AC50 assay. Format: biochemical. Conditions: wild type PKR. The method, boiled down:
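Human PKR (WT or mutant, 80-400 ng/well) in 50 mM Tris pH 7.5, 100 mM KCl, 5 mM MgCl2, 1 mM DTT, 0.03% BSA with PEP 0.1-0.5 mM, NADH 180 uM and LDH, preincubated 60 min at room temperature with compound (11-point 3-fold series from 100 μM final, 1% DMSO). ADP 0.22-1.65 mM started reaction; A340 followed.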

The target of assay [3] is PKR R532W (Homo sapiens, UniProt P30613, R532W). In words: PKR Mutant Assay, AC50 against PKR R532W. Format: biochemical. Conditions: mutant PKR R532W enzyme. The method, boiled down: (§1)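 Steps: compound added to wells, then reaction mix lacking ADP; 60 min room-temperature hold; ADP (0.22-1.65 mM) added to start; A340 monitored at room temperature via PEP/LDH/NADH coupling. Top final compound concentration 100 μM, 3-fold dilutions over 11 points.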

Assay [4] has as its target PKR R510Q (Homo sapiens, UniProt P30613, R510Q). In words: PKR Mutant Assay, AC50 against PKR R510Q. Format: biochemical. Particulars: mutant PKR R510Q enzyme. The method, boiled down: as §1

Structures are written as SMILES.

This is an account of results in US9108921B2, “Therapeutic compounds and compositions” (AGIOS PHARMACEUTICALS, INC, priority 2014, dated 2015).

T1 sequence (P30613 whole entry): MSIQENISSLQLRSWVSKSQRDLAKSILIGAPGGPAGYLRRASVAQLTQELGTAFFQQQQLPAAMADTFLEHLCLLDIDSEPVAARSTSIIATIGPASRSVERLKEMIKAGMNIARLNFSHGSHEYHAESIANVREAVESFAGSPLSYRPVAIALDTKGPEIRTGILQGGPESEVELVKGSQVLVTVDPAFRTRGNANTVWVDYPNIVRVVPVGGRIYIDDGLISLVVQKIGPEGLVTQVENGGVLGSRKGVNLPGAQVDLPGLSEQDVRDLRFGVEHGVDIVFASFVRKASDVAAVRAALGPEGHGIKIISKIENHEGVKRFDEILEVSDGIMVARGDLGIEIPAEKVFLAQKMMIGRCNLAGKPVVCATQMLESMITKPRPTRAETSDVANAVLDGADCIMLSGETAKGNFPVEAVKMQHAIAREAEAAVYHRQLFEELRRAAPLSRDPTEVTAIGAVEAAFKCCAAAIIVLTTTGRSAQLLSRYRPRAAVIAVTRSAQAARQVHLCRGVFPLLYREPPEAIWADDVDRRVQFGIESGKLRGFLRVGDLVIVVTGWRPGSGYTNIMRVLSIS
PKR R510Q, sequence (P30613 whole entry R510Q): as the sequence (P30613 whole entry) above, with R510Q counted along it
PKR R532W, sequence (P30613 whole entry R532W): as the sequence (P30613 whole entry) above, with R532W counted along it

By AC50 is commonly meant the concentration giving half of the maximal activity seen. A higher AC50 goes with weaker potency. For the compound `O=C(c1ccc(NS(=O)(=O)c2cccc3cc(F)cnc23)cc1)N1CCC(O)(c2ccccc2)CC1` [Compound 218, 3-fluoro-N-(4-(4-hydroxy-4-phenylpiperidine-1-carbonyl)phenyl)quinoline-8-sulfonamide], the AC50 was under 0.1 µM in assay [1], under 0.1 µM in assay [2], under 0.1 µM in assay [3] and 0.101 to 1 µM in assay [4].

In the case of `Cc1cc(C(=O)N2CCC(O)(c3cccc(F)c3F)CC2)ccc1NS(=O)(=O)c1ccc(F)c2cccnc12` [Compound 220, N-(4-(4-(2,3-difluorophenyl)-4-hydroxypiperidine-1-carbonyl)-2-methylphenyl)-5-fluoroquinoline-8-sulfonamide], the AC50 was 1.01 to 10 µM in assay [1], under 0.1 µM in assay [2], under 0.1 µM in assay [3] and 0.101 to 1 µM in assay [4].

For the compound `O=C(c1ccc(NS(=O)(=O)c2cccc3cccnc23)c(Cl)c1)N1CCC(O)(c2ccccc2Cl)CC1` [Compound 222, N-(2-chloro-4-(4-(2-chlorophenyl)-4-hydroxypiperidine-1-carbonyl)phenyl)quinoline-8-sulfonamide], the AC50 in assay [1] was under 0.1 µM; in assay [2], under 0.1 µM; in assay [3] it was under 0.1 µM; in assay [4] it was 0.101 to 1 µM.

For the compound `O=C(c1ccc(NS(=O)(=O)c2cc(F)cc3cccnc23)cc1)N1CCC(O)(c2ccccc2Cl)CC1` [Compound 223, N-(4-(4-(2-chlorophenyl)-4-hydroxypiperidine-1-carbonyl)phenyl)-6-fluoroquinoline-8-sulfonamide], the AC50 in assay [1] is 0.101 to 1 µM; in assay [2], under 0.1 µM; in assay [3], under 0.1 µM; in assay [4], 0.101 to 1 µM.

With `O=C(c1ccc(NS(=O)(=O)c2cccc3ccc(F)nc23)cc1)N1CCC(O)(c2ccccc2Cl)CC1` [Compound 224, N-(4-(4-(2-chlorophenyl)-4-hydroxypiperidine-1-carbonyl)phenyl)-2-fluoroquinoline-8-sulfonamide], the AC50 in assay [1] was 0.101 to 1 µM; in assay [2], under 0.1 µM; in assay [3], under 0.1 µM; in assay [4], 1.01 to 10 µM.

Regarding `COCCC1(O)CCN(C(=O)c2ccc(NS(=O)(=O)c3cccc4cccnc34)cc2)CC1` [Compound 225, N-[4-[4-hydroxy-4-(2-methoxyethyl)piperidine-1-carbonyl]phenyl]quinoline-8-sulfonamide], the AC50 in assay [1] is 0.101 to 1 µM; in assay [2] it was under 0.1 µM; in assay [3], 0.101 to 1 µM; in assay [4], 0.101 to 1 µM.

On to `O=C(c1ccc(NS(=O)(=O)c2cccc3cccnc23)c2ccccc12)N1CCC(O)(c2ccccc2Cl)CC1` [Compound 226, N-(4-(4-(2-chlorophenyl)-4-hydroxypiperidine-1-carbonyl)naphthalen-1-yl)quinoline-8-sulfonamide], for which the AC50 in assay [1] was 0.101 to 1 µM; in assay [2], under 0.1 µM; in assay [3], under 0.1 µM; in assay [4], 0.101 to 1 µM.

On to `O=C(c1ccc(NS(=O)(=O)c2cccc3cccnc23)cc1)N1CCC(O)(c2ccccc2O)CC1` [Compound 228, N-[4-[4-hydroxy-4-(2-hydroxyphenyl)piperidine-1-carbonyl]phenyl]quinoline-8-sulfonamide], for which the concentration at half-maximal activity (AC50) in assay [1] was under 0.1 µM; in assay [2] it was 0.101 to 1 µM; in assay [3], under 0.1 µM; in assay [4], 1.01 to 10 µM.

As to `Cc1nc(F)ccc1C1(O)CCN(C(=O)c2ccc(NS(=O)(=O)c3ccc(F)c4cccnc34)cc2)CC1` [Compound 229, 5-fluoro-N-(4-(4-(6-fluoro-2-methylpyridin-3-yl)-4-hydroxypiperidine-1-carbonyl)phenyl)quinoline-8-sulfonamide], the AC50 in assay [1], in assay [2], in assay [3] and in assay [4] was 0.101 to 1 µM throughout.

Turning to `O=C(c1ccc(NS(=O)(=O)c2cccc(Cl)c2Cl)cc1)N1CCC(O)(Cc2ccccc2)CC1` [Compound 237, N-(4-(4-benzyl-4-hydroxypiperidine-1-carbonyl)phenyl)-2,3-dichlorobenzenesulfonamide], the AC50 in assay [1], in assay [2], in assay [3] and in assay [4] was 0.101 to 1 µM each time.

As for `CC(C)(O)CC1(O)CCN(C(=O)c2ccc(NS(=O)(=O)c3cccc4cccnc34)cc2)CC1` [Compound 241, N-(4-(4-hydroxy-4-(2-hydroxy-2-methylpropyl)piperidine-1-carbonyl)phenyl)quinoline-8-sulfonamide], the AC50 was in the range of 0.101 to 1 µM in assay [1], 0.101 to 1 µM in assay [2], 0.101 to 1 µM in assay [3] and 1.01 to 10 µM in assay [4].

In the case of `O=C(c1ccc(NS(=O)(=O)c2cccc3nccnc23)cc1)N1CCC(O)(c2ccccc2)CC1` [Compound 243, N-(4-(4-hydroxy-4-phenylpiperidine-1-carbonyl)phenyl)quinoxaline-5-sulfonamide], the AC50 in assay [1] was under 0.1 µM; in assay [2] it was 0.101 to 1 µM; in assay [3] it was 0.101 to 1 µM; in assay [4], 1.01 to 10 µM.

Turning to `O=C(c1ccc(NS(=O)(=O)c2cccc3cccnc23)cc1)N1CCC(O)(c2cccc(OC(F)(F)F)c2)CC1` [Compound 245, N-(4-(4-hydroxy-4-(3-(trifluoromethoxy)phenyl)piperidine-1-carbonyl)phenyl)quinoline-8-sulfonamide], the AC50 was in the range of 1.01 to 10 µM in assay [1], 0.101 to 1 µM in assay [2], 0.101 to 1 µM in assay [3] and 1.01 to 10 µM in assay [4].

Regarding `CCOC(=O)C1(CC(C)C)CCN(C(=O)c2ccc(NS(=O)(=O)c3cccc4cccnc34)cc2)CC1` [Compound 250, Ethyl 4-isobutyl-1-(4-(quinoline-8-sulfonamido)benzoyl)piperidine-4-carboxylate], the AC50 was 1.01 to 10 µM in assay [1], 0.101 to 1 µM in assay [2], 0.101 to 1 µM in assay [3] and 1.01 to 10 µM in assay [4].

Regarding `O=C(c1ccc(NS(=O)(=O)c2cccc3cccnc23)cc1)N1CCC(O)(C2CC2)CC1` [Compound 260, N-(4-(4-cyclopropyl-4-hydroxypiperidine-1-carbonyl)phenyl)quinoline-8-sulfonamide], the AC50 was 1.01 to 10 µM in assay [1], 0.101 to 1 µM in assay [2], 0.101 to 1 µM in assay [3] and 1.01 to 10 µM in assay [4].

Regarding `O=C(c1ccc(NS(=O)(=O)c2cccc3cccnc23)cc1)N1CCC(O)(c2cnsc2)CC1` [Compound 353], the AC50 is under 0.1 µM in assay [1], under 0.1 µM in assay [2], under 0.1 µM in assay [3] and 0.101 to 1 µM in assay [4].

As to `O=C(c1ccc(NS(=O)(=O)c2cccc3cccnc23)cc1)N1CCC(O)(c2cnsc2)CC1` [Compound 377], the AC50 in assay [1] was under 0.1 µM; in assay [2], under 0.1 µM; in assay [3], under 0.1 µM; in assay [4], 0.101 to 1 µM.

As to `CC(C)CC1(O)CCN(C(=O)c2ccc(NS(=O)(=O)c3cccc4ocnc34)cc2)CC1` [Compound 379, N-(4-(4-hydroxy-4-isobutylpiperidine-1-carbonyl)phenyl)benzo[d]oxazole-4-sulfonamide], the AC50 in assay [1], in assay [2], in assay [3] and in assay [4] was 0.101 to 1 µM each time.
